Experimental data: patent US20230310388A1, “Methods and Compositions for Treating Fungal Infections” (Neoculi Pty Ltd, priority 2020, published 2023)

Assays:
Format in all cases: cell-based
Candida albicans = assay: CLSI broth microdilution MIC (Example 4)
Procedure: (§1) Antifungal minimum inhibitory concentration (MIC) testing was undertaken as recommended by the CLSI. Briefly, antifungal susceptibility tests were performed for amphotericin B, robenidine (NCL812) and robenidine (NCL) analogs (NCL004, NCL020, NCL023, NCL024, NCL062, NCL094, NCL097, NCL110, NCL113, NCL114, NCL115, NCL135, NCL139, NCL180, NCL181, NCL195, NCL219, NCL220, NCL228, NCL247, NCL250, NCL259, NCL260, NCL263, NCL265, NCL269, NCL274) by standard broth microdilution method (CLSI) in RPMI 1640. Various concentrations (ranging from high to low) of the selected compounds were prepared in RPMI 1640 medium by double dilution in 96-well microtitre plates. Each well contained an inoculum of approximately 2×10^3 cells/mL. The wells without addition of drugs served as negative (no inoculum) and positive (inoculum only) growth controls. Microtitre plates were incubated at 35° C. for 24-48 hours. […] Antifungal MICs were determined for each isolate in duplicate; if the values obtained were different, the MIC test was repeated a third time.

Cryptococcus neoformans = assay: CLSI broth microdilution MIC (Example 4)
Procedure: as §1

[1] = system: Candida albicans ATCC14053; assay: Broth micro-dilution screen at 16 μg/mL and MIC (Example 9); details: single concentration 16 μg/mL; Growth or No growth of C. albicans ATCC14053
Procedure: The antifungal activity of 201 NCL analogs against Candida albicans ATCC14053 in vitro was investigated. A broth micro-dilution method was used, according to CLSI guidelines as described. NCL analogs were dissolved in DMSO and originally screened at a single concentration of 16 μg/mL.

SMILES	MIC at 24-48 hours (Candida albicans; Candida albicans ATCC 90028) [µg/mL]	MIC at 24-48 hours (Candida albicans; Candida albicans SA3) [µg/mL]	MIC at 24-48 hours (Cryptococcus neoformans; Cryptococcus neoformans SA1) [µg/mL]	MIC at 24-48 hours (Cryptococcus neoformans; Cryptococcus neoformans SA2) [µg/mL]	Screen at 16 μg/mL [1]
Clc1ccc(/C=N/CC/N=C/c2ccc(Cl)cc2)cc1 [NCL250]	>32	>32	>32	>32	Growth
Clc1ccc(CNCCNCc2ccc(Cl)cc2)cc1 [NCL260]	>32	>32	>32	>32	Growth
Cl.N=C(N)N/N=C/c1ccc(C(F)(F)F)cc1F [NCL263]	>32	>32	>32	>32	Growth
CC(=NNC(=N)N)c1c[nH]c2ccccc12 [NCL269]	>32	>32	>32	>32	Growth
